We go through 10 molecules from PubChem BioAssay (NCI).

Common to all, as to assay: growth of human tumour cells (NCI), 48 h
The test system of assay [1] is M14 melanoma.
Assay [2] deals with SW-620 colon.
Assay [3] relates to CAKI-1 renal.
For assay [4], the system named is SK-MEL-28 melanoma.
The subject of assay [5] is OVCAR-3 ovarian.
The test system of assay [6] is UACC-257 melanoma.
Assay [7] concerns COLO 205 colon.
Assay [8] relates to NCI-H226 lung.
The subject of assay [9] is MOLT-4 leukemia.
The subject of assay [10] is NCI-H522 lung.

Each structure is given as a SMILES string. Several values for one entry are separate records, joined by “and”; a condition that tells them apart may be missing. Equal values may be shown once.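 Each compound was tested at five concentrations against cells in 96-well plates for 48 hours. Abbreviation: GI50, concentration required for 50% inhibition of growth. TGI: total growth inhibition.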

Take `[Cl][Bi]([O]c1ccccn1)[O]c1ccccn1`: the GI50 in [1], in [2], in assay [3], in assay [4], in [5] and in assay [6] was more than 100 µM in each case. Further, the GI50 in [7] was more than 100 µM. For the same molecule, the TGI in [1], in [2], in assay [3], in [4], in assay [5] and in assay [6] was more than 100 µM throughout. The molecule further came in with a TGI in assay [7] of more than 100 µM.

Turning to `CC(=O)O[C@H]1C(=O)[C@@]2(C)C(C(OC(=O)c3ccccc3)[C@]3(O)CC(OC(=O)[C@H](OC(=O)CCC(=O)O)C(NC(=O)c4ccccc4)c4ccccc4)C(C)=C1C3(C)C)C1(OC(C)=O)COC1C[C@@H]2OC(=O)CCC(=O)O` (stereo partly specified), the TGI is more than 100 µM in [1]; more than 100 µM in assay [2]; more than 100 µM in [3]; 86.9 µM in assay [4]; 81.1 µM and > 100 µM in [8]; more than 54.2 µM in assay [5]. The TGI was more than 100 µM in assay [6], 18.6 µM in assay [7] and more than 20.6 µM in assay [9]. Moreover, the GI50 in [3] is > 89.2 µM and 36.3 µM; in [5], 1.89 µM; in assay [7], 0.865 µM.

Turning to `O=C1C(Cl)=C(Cl)C(=O)N1C1C2CC3CC(C2)CC1C3` (stereo unspecified), the TGI is more than 100 µM in assay [1]; more than 100 µM in [2]; more than 66.9 µM in assay [3]; more than 64.5 µM in [10]; more than 100 µM in assay [4]; more than 100 µM in assay [8]. Further, the values for the TGI in [6], in assay [7] and in assay [9] were more than 100 µM, more than 100 µM and more than 83.3 µM, respectively.

Turning to `O=Cc1c(-c2cc(O)ccc2O)nc2sccn12`, the GI50 in assay [1] is 13.8 µM; in assay [2], 25.3 µM; in assay [3], 0.958 µM; in [4], 23.8 µM; in assay [8] it was 14.7 µM; in assay [5] it was 1.6 µM. In addition, the GI50 is 29.9 µM in assay [6], 32.3 µM in assay [7] and 2.52 µM in [9]. Moreover, the TGI in assay [1] was 30.1 µM; in assay [2] it was more than 100 µM; in assay [3] it was 4.09 µM; in assay [4], 96.6 µM; in [8], 37.7 µM; in assay [5] it was 6.47 µM. Also, the TGI in assay [6] was 95.8 µM; in [7] it was more than 100 µM; in [9] it was 11.5 µM.

`COc1cc(Nc2nc3cc(N)cc(N)c3nc2-c2ccccc2)cc(OC)c1`: the GI50 was 14.2 µM in assay [1]; 27.2 µM in assay [2]; 14.9 µM in assay [3]; 9.51 µM in [10]; 14.7 µM in assay [4]; 2.9 µM in assay [8]. The GI50 in [5] is 3.9 µM; in assay [6] it was 15.9 µM; in assay [7], 14.5 µM. Besides, the TGI in assay [1] was 34.8 µM; in assay [2] it was more than 100 µM; in [3], 73 µM; in assay [10], 28.8 µM; in assay [4] it was 89.3 µM; in [8], 32.9 µM. In addition, the results for the TGI in assay [5], in assay [6] and in [7] were 20.1 µM, 48 µM and 31.4 µM, respectively.

Turning to `O=c1c2ccccc2c2ccccc2c(=O)n1-c1cc2c3ccccc3ccc2c2ccccc12`, the TGI in assay [1], in assay [2], in assay [3], in assay [10], in [4] and in [8] was more than 100 µM each time. Moreover, the TGI in assay [5], in assay [6] and in [7] was more than 100 µM throughout.

In the case of `COCCn1cc(-c2csc(-c3c[nH]c4ccccc34)n2)c2cccnc21`, the GI50 in assay [1] was 3.22 µM; in [2], 3.52 µM; in [3], 8.36 µM; in assay [4] it was 8.18 µM; in [5], 2.94 µM; in assay [6] it was more than 100 µM. In addition, the GI50 in assay [7] was 2.66 µM. Besides, the TGI in assay [1], in assay [2], in assay [3], in [4], in assay [5] and in assay [6] was more than 100 µM in each case. In assay [7], this molecule displayed a TGI of more than 100 µM.

Turning to `O=S(=O)([O-])c1cccc2cccc(N=Cc3ccccc3[O-])c12.O=S(=O)([O-])c1cccc2cccc(N=Cc3ccccc3[O-])c12.[O]=[U]=[O]`, the GI50 in [1] was 43 µM; in [2], 42.1 µM; in assay [10] it was more than 100 µM; in assay [4], more than 100 µM; in [8], 84.9 µM; in assay [5], more than 100 µM. For the same molecule, the GI50 is more than 100 µM in [6], 64.8 µM in assay [7] and 29 µM in assay [9]. The TGI in [1], in [2], in assay [10], in assay [4], in assay [8] and in assay [5] was more than 100 µM in each case. Moreover, the TGI in [6], in assay [7] and in assay [9] was more than 100 µM in each case.

`COc1ccc2[nH]c(-c3ccccn3)cc(=O)c2c1`: the TGI in [1] was 90.9 µM; in assay [2] it was more than 100 µM; in assay [10] it was 65.8 µM; in assay [4], more than 100 µM; in assay [8], more than 100 µM; in assay [5], more than 100 µM. The TGI in assay [6], in assay [7] and in assay [9] was more than 100 µM in each case. Besides, the GI50 in [8] is 36.6 µM; in [5], more than 100 µM.

For `OCCCCC#Cc1ccccc1C#Cc1ccccc1`, the GI50 is 10.1 µM in [1]; 15.7 µM in [2]; 14.7 µM in assay [3]; 27 µM in assay [10]; 17 µM in assay [4]; 16.2 µM in [8]. For the same molecule, the results for the GI50 in [6], in assay [7] and in assay [9] were 19.4 µM, 12.9 µM and 17.8 µM, respectively. In addition, the TGI in assay [1] was 22.9 µM; in assay [2] it was 34.4 µM; in assay [3], 29.1 µM; in [10] it was more than 100 µM; in assay [4], 41.6 µM; in assay [8] it was 35.3 µM. For the same molecule, the figures for the TGI in assay [6], in assay [7] and in assay [9] were 43.8 µM, 36.3 µM and 63.8 µM, respectively.
